The test system of data set [1] is Caspase-3 activation. Briefly: Caspase-3 activation in wild-type and TrkC-/- cortical neurons. The data set is classed as cell-based, mice. The note with it: FIG. 22 row 5. As for the experimental part:
To further assess whether 7,8-dihydroxyflavone blocks neuronal apoptosis in a TrkB dependent manner, cortical neurons were prepared from homozygous pups of TrkC+/−mice, which were mated to the same genotype. […] Glutamate weakly stimulated both TrkA and TrkB faint phosphorylation regardless of TrkC genotype (FIG. 22, rows 1 and 3). The spontaneous caspase-3 activation in TrkC−/− neurons was suppressed by 7,8-dihydroxyflavone (FIG. 22, row 5).

Data set [2] relates to Caspase-3 activation. Briefly: Glutamate-provoked Caspase-3 activation in wild-type and TrkB-/- cortical neurons. It counts as cell-based, mice. The note with it: FIG. 21. As for the experimental part:
To determine whether 7,8-dihydroxyflavone can selectively activate TrkB receptor and prevent neuronal cell death, cortical neurons were prepared from homozygous pups of TrkB+/−mice, which were mated to the same genotype. […] Glutamate nonselectively elicited weak TrkA phosphorylation in both wild-type and TrkB-null neurons (FIG. 21, row 3).

Data set [3] addresses TrkB (Rattus norvegicus, UniProt Q63604). The experiment in a line: Western analysis of TrkB activation in hippocampal neurons. Set-up: endogenous in cells; host or cells: primary hippocampal neurons. The note with it: FIG. 9. The data set is classed as cell-based. As for the experimental part: (§1) To further examine whether 7,8-dihydroxyflavone can stimulate TrkB-mediated downstream signaling cascades, Western analysis was performed.
To further test that the stimulatory effect of 7,8-dihydroxyflavone is mediated through TrkB, cells were either untreated or treated with K252a, a selective inhibitor of the tyrosine kinase activity of the Trk family of neutrophin receptors.

Data set [4] can be described thus: Toxicity after 3-week chronic treatment (organ pathology, complete blood count). It counts as in vivo, mice. As for the experimental part:
To explore whether 4′-dimethylamino-7,8-dihydroxyflavone and 7,8-dihydroxyflavone have any intolerable toxicity, the major organs from mice treated with both compounds at 5 mg/kg/day for 3 weeks were analyzed.

Data set [5] deals with T1, TrkB (Mus musculus, UniProt P15209).
T1 construct: from tissue; host or cells: mouse brain
The experiment in a line: TrkB activation in mouse brain after intraperitoneal injection. The data set is classed as in vivo, mice. The note with it: 5 mg/kg intraperitoneally. As for the experimental part:
To assess whether 7,8-dihydroxyflavone can provoke TrkB activation in the brain, mice were intraperitoneally injected with a dose of 5 mg/kg and analyzed at various time points. […] Further, as shown in FIG. 12 (right panel), the protein and mRNA levels of the neurotrophic receptors were not altered after treatment with 7,8-dihydroxyflavone.

In the next data set the target is T2, TrkB F616A (Mus musculus, UniProt P15209, F616A).
T2 construct: endogenous in cells; host or cells: cortical neurons of TrkB F616A knock-in mice
Briefly: TrkB phosphorylation in cortical neurons from TrkB F616A knockin mice. As to conditions: 0.5 μM, 30 minutes, FIG. 23. The data set is classed as cell-based. As for the experimental part:
To explore whether the neuroprotective action of 7,8-dihydroxyflavone is dependent on TrkB activation in vivo, TrkB F616A knockin mice were used. […] To further assess whether 7,8-dihydroxyflavone can mimic BDNF, cortical neurons were prepared from TrkB F616A knockin mice. The cortical neurons were pretreated for 30 minutes with either K252a Trk tyrosine kinase inhibitor (100 nM) or 1NMPP1 inhibitor (100 nM) followed by 0.5 μM 7,8-dihydroxyflavone for 30 minutes.

A further data set deals with immobility. Briefly: Forced swim test, 5 days intraperitoneal. The data set is classed as in vivo, mice. The note with it: intraperitoneally for 5 days; imipramine 20 mg/kg, amitryptyline 15 mg/kg, 7,8-dihydroxyflavone 5 mg/kg; FIG. 25.
The next data set relates to Erk. Briefly: Western analysis of Erk phosphorylation in hippocampal neurons. It counts as cell-based. As for the experimental part: as §1
To probe the time course of 7,8-dihydroxyflavone triggered TrkB activation, hippocampal neurons were treated with 7,8-dihydroxyflavone at 500 nM and phosphorylation of Erk and Akt was determined over time by Western analysis. […] Stimulation of Erk and Akt by 7,8-dihydroxyflavone also occurred in a dose dependent manner.

In another data set the test system is TrkB ECD truncates. Briefly: Mapping assay with TrkB ECD truncation mutants. As to conditions: FIG. 18. The data set is classed as binding. As for the experimental part:
BDNF is known to bind to the region of the TrkB ECD that contains the third leucine-rich motif (LRM), the second cysteine cluster (CC) domain, and the Immunoglobulin 2 (Ig2) domain (Haniu et al., J. Biol. Chem., 272:25296-303, 1997). To map where 7,8-dihydroxyflavone binds on the TrkB ECD, truncation mutants of the ECD were made and in vitro binding assays were conducted.

Data set [6] has as its target T3, TrkB intracellular domain (ICD) (Rattus norvegicus, UniProt Q63604).
T3 construct: purified TrkB extracellular domain (ECD) and intracellular domain (ICD) recombinant proteins
Briefly: In vitro binding assay with [3H]7,8-dihydroxyflavone: TrkB ICD. As to conditions: gradual increments of [3H]-7,8-dihydroxyflavone. As for the experimental part:
(§2) To determine whether 7,8-dihydroxyflavone physically and directly binds the TrkB receptor, in vitro binding assays were conducted with purified TrkB extracellular domain (ECD) and intracellular domain (ICD) recombinant proteins. Purified TrkB ECD and ICD (10 μg of each) were incubated with different concentrations of ^3H-7,8-dihydroxyflavone in 1 ml of binding buffer (0.05M Na/K phosphate buffer, pH 7.1, 200 mM NaCl) at 4° C. for 10 minutes. After the incubation, the reaction mixture was loaded on filter paper. The mixture was washed three times with Tris buffer (100 mM Tris, pH 7.1), and the dried filter paper was put into a small vial and subjected to liquid scintillation counter analysis. […] The value of the dissociate constant and the number of sites were obtained from Scatchard plots using the equation r/[L]free=n/Kd−r/Kd, where r is the ratio of the concentration of bound ligand to the total protein concentration and n is the number of binding sites.

For the next data set, the target named is GST-TrkB ICD (Rattus norvegicus, UniProt Q63604). Briefly: In vitro binding assay with immobilized GST-TrkB ICD on glutathione beads, UV-spectrometry of eluate. As to conditions: 500 nM, 4° C., 30 minutes, FIG. 17. As for the experimental part:
To further explore the association of 7,8-dihydroxyflavone and the TrkB receptor, an in vitro binding assay was performed. Increasing volumes of GST-TrkB ECD and GST-TrkB ICD were bound to glutathione beads to a total of 250 uL, and 500 nM 7,8-dihydroxyflavone in 250 μl (20% DMSO/80% PBS) was incubated with the beads in the column at 4° C. for 30 minutes. After the incubation, the elute fractions were collected and the concentration of eluted 7,8-dihydroxyflavone was analyzed by UV-spectrometry at a wavelength of 410 nm.

Data set [7] has as its target T4, TrkB extracellular domain (ECD) (Rattus norvegicus, UniProt Q63604).
T4 construct: purified TrkB extracellular domain (ECD) and intracellular domain (ICD) recombinant proteins
Briefly: In vitro binding assay with [3H]7,8-dihydroxyflavone, filter, Scatchard plot: TrkB ECD. As for the experimental part: as §2

T1 sequence (P15209 32-821): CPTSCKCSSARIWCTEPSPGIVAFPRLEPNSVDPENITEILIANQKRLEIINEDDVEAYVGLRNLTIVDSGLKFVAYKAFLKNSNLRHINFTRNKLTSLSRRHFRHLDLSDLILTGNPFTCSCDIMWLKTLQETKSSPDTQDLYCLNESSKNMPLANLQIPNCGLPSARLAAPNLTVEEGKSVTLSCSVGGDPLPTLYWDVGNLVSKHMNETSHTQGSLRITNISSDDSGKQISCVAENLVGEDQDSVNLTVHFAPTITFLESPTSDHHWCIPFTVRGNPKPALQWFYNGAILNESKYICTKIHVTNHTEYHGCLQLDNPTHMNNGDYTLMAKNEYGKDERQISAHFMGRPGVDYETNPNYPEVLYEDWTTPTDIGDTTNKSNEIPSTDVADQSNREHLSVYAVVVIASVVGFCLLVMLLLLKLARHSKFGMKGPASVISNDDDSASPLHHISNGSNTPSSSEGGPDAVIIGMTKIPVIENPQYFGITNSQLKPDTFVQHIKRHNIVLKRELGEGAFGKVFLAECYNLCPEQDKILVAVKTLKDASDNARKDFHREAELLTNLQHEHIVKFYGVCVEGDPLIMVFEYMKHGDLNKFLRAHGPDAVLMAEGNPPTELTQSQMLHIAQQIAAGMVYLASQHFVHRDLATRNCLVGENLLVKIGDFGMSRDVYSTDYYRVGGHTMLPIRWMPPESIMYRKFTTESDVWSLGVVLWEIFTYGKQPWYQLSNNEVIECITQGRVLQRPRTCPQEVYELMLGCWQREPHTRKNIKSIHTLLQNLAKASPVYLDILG
T4 sequence (Q63604 32-429 limits assumed): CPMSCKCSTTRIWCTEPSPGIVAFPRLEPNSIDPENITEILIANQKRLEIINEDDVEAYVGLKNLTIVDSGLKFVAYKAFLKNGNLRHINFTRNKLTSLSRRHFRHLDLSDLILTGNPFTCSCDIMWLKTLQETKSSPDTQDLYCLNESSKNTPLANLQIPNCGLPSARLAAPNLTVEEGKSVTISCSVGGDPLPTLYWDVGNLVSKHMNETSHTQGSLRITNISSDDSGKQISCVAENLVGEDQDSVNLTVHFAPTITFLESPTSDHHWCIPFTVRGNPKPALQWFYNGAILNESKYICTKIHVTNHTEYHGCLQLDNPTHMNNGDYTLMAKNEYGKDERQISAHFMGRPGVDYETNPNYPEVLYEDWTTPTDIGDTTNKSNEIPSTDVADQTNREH
TrkB (Rattus norvegicus, UniProt Q63604), sequence (Q63604 32-821): as the sequence (P15209 32-821) above, with T3M, S9T, A10T, V32I, R63K, S84G, M153T, L185I, S394T, S770N counted along it
GST-TrkB ICD, sequence (Q63604 454-821): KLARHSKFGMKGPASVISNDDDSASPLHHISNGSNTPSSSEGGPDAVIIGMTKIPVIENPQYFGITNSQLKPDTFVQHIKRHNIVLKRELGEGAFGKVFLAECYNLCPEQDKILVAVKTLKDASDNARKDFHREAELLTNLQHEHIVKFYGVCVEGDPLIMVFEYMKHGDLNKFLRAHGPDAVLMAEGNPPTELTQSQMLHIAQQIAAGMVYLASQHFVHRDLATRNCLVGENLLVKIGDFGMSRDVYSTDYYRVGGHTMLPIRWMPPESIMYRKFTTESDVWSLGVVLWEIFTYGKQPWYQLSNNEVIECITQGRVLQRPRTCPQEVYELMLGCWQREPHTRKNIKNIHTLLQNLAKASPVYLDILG
T3 sequence (Q63604 454-821 limits assumed): as the sequence (Q63604 454-821) above
T2 sequence (P15209 32-821 F616A): as the sequence (P15209 32-821) above, with F585A counted along it
Description for immobility: Adult male mice (2-3 months old, n=8) were randomly submitted, without a pre-swim, to a forced swim test of 6 minutes with immobility recorded in the last 4 minutes. Mice were injected intraperitoneally for 5 days with saline, imipramine (20 mg/kg), amitryptyline (15 mg/kg), or 7,8-dihydroxyflavone (5 mg/kg). The mice were allowed to adapt to the test room for 2 days, and the mice were placed in a clear glass cylinder with a diameter of 16 cm, half-filled with clear water at 24° C. […] Data are presented as mean±SEM; *p<0.05 against vehicle, **P<0.01 against vehicle and ***P<0.0001 against vehicle, student t-test.

Broadly, the Kd is the free concentration of one partner at which half of the binding sites on the other are occupied at equilibrium, for simple one-to-one binding. On to `O=c1cc(-c2ccccc2)oc2c(O)c(O)ccc12` [7,8-dihydroxyflavone], for which the “spontaneous caspase-3 activation in TrkC-/- neurons” value in the data set with Caspase-3 activation [1] was “suppressed”. Moreover, the “glutamate-triggered caspase-3 activation” value in the data set on Caspase-3 activation [1] (regardless of TrkC genotype) is “significantly diminished”. Further, in the data set with Caspase-3 activation [2], the “Glutamate-provoked Caspase-3 activation in TrkB-/- neurons” value is reported as “not” and the “Glutamate-provoked Caspase-3 activation in wild-type neurons” value was “substantially blocked”. In addition, the “activation of TrkB (Western)” value on TrkB [3] was “demonstrated activation of TrkB”. In addition, in data set [4] (5 mg/kg/day dose for 3-week chronic treatment), the “toxicity to the mice” value is reported as “neither compound was toxic”. In addition, in data set [4] (mouse, in vivo), the “complete blood count (CBC) versus control saline-treated mice” value is “no significant difference”. Besides, the “TrkB phosphorylation in the brain” value on TrkB [5] (2 hours after injection, FIG. 12) is on record as “selectively phosphorylated”. In addition, the “protein and mRNA levels of the neurotrophic receptors” value on TrkB [5] (FIG. 12 right) is “not altered”. The “TrkB phosphorylation in the hippocampus (immunofluorescent staining)” value at TrkB [5] (FIG. 13) was “substantial TrkB phosphorylation”. Also, the “activation of TrkB F616A” value at TrkB F616A is “selectively activates TrkB F616A”. Further, the swimming immobility entry in the data set with immobility is listed as “reduced the immobility”. Also, in the data set on Erk (500 nM), the “time at which Erk phosphorylation was observed” value turned out to be 5 min and the “time by which Erk phosphorylation faded” value came out at 180 min. For the same compound, in the data set on Erk (FIG. 9), the “Erk activation (Western)” value was “activated”. In the data set with Erk (treatment for 30 minutes), the “concentration at which Erk phosphorylation was observed” value amounted to 250 nM. In the data set with TrkB ECD truncates, the “association with the CC-2 domain” value was “strongly associated”, the “association with the LRM-domain” value is “associated less strongly” and the “binding to the CC-1 domain” value is “did not bind”. In data set [6], the “binding to TrkB ICD” value is given as “not ICD”. Besides, at GST-TrkB ICD, the “concentration of eluted compound as GST-TrkB ICD volumes increased” value is “remained constant”. Besides, the Kd in data set [7] (Scatchard plot, 4° C., 10 minutes, FIG. 16, read-out: binding constant Kd) is 320 nM. Further, the “binding to TrkB ECD” value in data set [7] (gradual increments of [3H]-7,8-dihydroxyflavone) is “progressively bound TrkB ECD”.

The values above are taken from US9895344B2, “Treating various disorders with 7,8-dihydroxyflavone and derivatives thereof” (EMORY UNIVERSITY, priority 2008, dated 2018).
